Assay: logP determination by HPLC on a reversed-phase column (C 18), EEC Directive 79/831 Annex V.A8
Assay type: physicochemical
Conditions: method marker [a] (footnote not shown); isomer A / isomer B / isomer mixture as noted in the cell
Protocol: The stated logP values were determined in accordance with EEC Directive 79/831 Annex V.A8 by HPLC (high performance liquid chromatography) on a reversed-phase column (C 18). Temperature: 43° C.

logP | Structure (SMILES)
1.65^[a] | CC(=NOCCCON=C(C)c1cc(C)cc(C)n1)c1cc(C)cc(C)n1 [Compound 224]
2.11^[a] | CC(=NOCC(C)CON=C(C)c1cc(C)cc(C)n1)c1cc(C)cc(C)n1 (stereo not shown) [Compound 225]
7.36^[a] | CC(=NOCC(C)CON=C(C)c1cccc(C(C)C)n1)c1cccc(C(C)C)n1 (stereo not shown) [Compound 229]
4.88^[a] | CCC(=NOCC(C)CON=C(CC)c1ccc(C)c(C)n1)c1ccc(C)c(C)n1 (stereo not shown) [Compound 235]
5.16^[a] | C=C(CON=C(CC)c1cccc(C)n1)CON=C(CC)c1cccc(C)n1 [Compound 239]

Same assay, conditions: method marker [b]; isomer A / isomer B / isomer mixture as noted in the cell

logP | Structure (SMILES)
2.94^[b] | CC(=NOCC(F)CON=C(C)c1cccc(C)n1)c1cccc(C)n1 (stereo not shown) [Compound 212]
6.71^[b] | CC(=NOCC(C)CON=C(C)c1nc2ccccc2s1)c1nc2ccccc2s1 (stereo not shown) [Compound 213]
2.02^[b] | C/C(=N\OCCOCOCCO/N=C(\C)c1cccc(C)n1)c1cccc(C)n1 [Compound 216]
5.37^[b] | CC(=NOCCCCCCCON=C(C)c1cccc(C)n1)c1cccc(C)n1 [Compound 217]
1.98^[b] | C=C(CON=C(C)c1cc(C)cc(C)n1)CON=C(C)c1cc(C)cc(C)n1 [Compound 219]
3.09^[b] | C=C(CON=C(C)c1cccc(C)n1)CON=C(N)c1nc(C2CC2)cc(C2CC2)n1 [Compound 243]
3.99^[b] | C=C(CON=C(C)c1cccc(C)n1)CON=C(N)c1nc(C)c(C(C)CC)c(C2CC2)n1 (stereo not shown) [Compound 244]
4.10^[b] | CC(=NOC(C)CC(C)ON=C(C)c1cccc(C)n1)c1cccc(C)n1 (stereo not shown) [Compound 248]
2.04^[b] | COc1ccc(C)nc1C(C)=NOCC(C)CON=C(C)c1nc(C)ccc1OC (stereo not shown) [Compound 251]
4.38^[b] | CCC(=NOCC(C)CON=C(CC)c1nc(C)c(C)c(C)n1)c1nc(C)c(C)c(C)n1 (stereo not shown) [Compound 254]

Same assay, conditions: value marked [a]

logP | Structure (SMILES)
2.19^[a] | CC(=NOCC(C)CON=C(C)c1nc(C)c(C)cc1C)c1nc(C)c(C)cc1C (stereo not shown) [Compound 255]
6.26^[a] | CCCC(=NOCC(C)CON=C(CCC)c1ccc(C)c(C)n1)c1ccc(C)c(C)n1 (stereo not shown) [Compound 262]
2.54^[a] | CC(=NOCC(C)(C)CON=C(C)c1cc(C)cc(C)n1)c1cc(C)cc(C)n1 [Compound 276]
6.11^[a] | CCC(=NOCC(C)(C)CON=C(CC)c1cccc(C)n1)c1cccc(C)n1 [Compound 277]
3.81^[a] | CC(=NOCC(C)(C)CON=C(C)c1ccc(C)c(C)n1)c1ccc(C)c(C)n1 [Compound 278]
7.25^[a] | CCCC(=NOCC(C)(C)CON=C(CCC)c1cccc(C)n1)c1cccc(C)n1 [Compound 279]
5.58^[a] | CCC(=NOCC(C)(C)CON=C(CC)c1ccc(C)c(C)n1)c1ccc(C)c(C)n1 [Compound 280]
4.50^[a] | CC(=NOC[Si](C)(C)CON=C(C)c1cccc(C)n1)c1cccc(C)n1 [Compound 292]
4.14^[a] | CC(=NOCC(C)CON=C(C)c1ccc2c(n1)CCC2)c1ccc2c(n1)CCC2 (stereo not shown) [Compound 300]
4.78^[a] | CC(=NOCC(C)(C)CON=C(C)c1ccc2c(n1)CCC2)c1ccc2c(n1)CCC2 [Compound 301]
3.28^[a] | CC(=NOCCCON=C(C)c1ccc2c(n1)CCC2)c1ccc2c(n1)CCC2 [Compound 302]
5.49^[a] | CC(=NOCC(C)(C)CON=C(C)c1ccc2c(n1)CCCC2)c1ccc2c(n1)CCCC2 [Compound 303]
4.69^[a] | CC(=NOCC(C)CON=C(C)c1ccc2c(n1)CCCC2)c1ccc2c(n1)CCCC2 (stereo not shown) [Compound 304]
6.47^[a] | CC(=NOCC(C)(C)CON=C(C)c1cccc(Cc2ccccc2)n1)c1cccc(C)n1 [Compound 364]

Same assay, conditions: value marked [b]

logP | Structure (SMILES)
4.63^[b] | CC(=NOCC(CON=C(C)c1cccc(C)n1)c1ccccc1)c1cccc(C)n1 (stereo not shown) [Compound 264]
7.08^[b] | C=C(CON=C(CC)c1cccc(CC)n1)CON=C(CC)c1cccc(CC)n1 [Compound 265]
3.41^[b] | CC(=NOCC(C)CON=C(C)c1nc(C)c(C)c(C)n1)c1nc(C)c(C)c(C)n1 (stereo not shown) [Compound 266]
5.51^[b] | CC(=NOCC(CON=C(C)c1cccc(C)n1)C(C)(C)C)c1cccc(C)n1 (stereo not shown) [Compound 269]
5.14^[b] | CCCC(CON=C(C)c1cccc(C)n1)CON=C(C)c1cccc(C)n1 (stereo not shown) [Compound 270]
4.49^[b] | COc1cc(OC)nc(C(C)=NOCC(C)CON=C(C)c2nc(OC)cc(OC)n2)n1 (stereo not shown) [Compound 272]
2.05^[b] | C=C(CON=C(C)c1nc(C)ccc1OC)CON=C(C)c1nc(C)ccc1OC [Compound 283]
4.77^[b] | CC(=NOCC1(CON=C(C)c2cccc(C)n2)CCC1)c1cccc(C)n1 [Compound 289]
4.92^[b] | COCc1cccc(C(C)=NOCC(C)CON=C(C)c2cccc(COC)n2)n1 (stereo not shown) [Compound 290]
2.22^[b] | COC(CON=C(C)c1cccc(C)n1)CON=C(C)c1cccc(C)n1 (stereo not shown) [Compound 294]
3.34^[b] | CC(=NOCCC(C)ON=C(C)c1cccc(C)n1)c1cccc(C)n1 (stereo not shown) [Compound 295]
6.48^[b] | CCc1nc(C(C)=NOCC(C)CON=C(C)c2ccc(C)c(CC)n2)ccc1C (stereo not shown) [Compound 310]
2.84^[b] | CC(=NOCC1(CON=C(C)c2ccc(C)c(C)n2)CC1)c1ccc(C)c(C)n1 [Compound 315]
4.48^[b] | CCCC(CON=C(C)c1ccc(C)c(C)n1)CON=C(C)c1ccc(C)c(C)n1 (stereo not shown) [Compound 316]
4.91^[b] | CC(=NOCC(CON=C(C)c1ccc(C)c(C)n1)C(C)(C)C)c1ccc(C)c(C)n1 (stereo not shown) [Compound 317]
4.02^[b] | CC(=NOCC(CON=C(C)c1ccc(C)c(C)n1)c1ccccc1)c1ccc(C)c(C)n1 (stereo not shown) [Compound 318]
4.07^b] | CC(=NOCC1(CON=C(C)c2ccc(C)c(C)n2)CCC1)c1ccc(C)c(C)n1 [Compound 319]
5.34^[b] | CC(=NOCC1(CON=C(C)c2ccc(C)c(C)n2)CCCCC1)c1ccc(C)c(C)n1 [Compound 320]
1.95^[b] | COC(CON=C(C)c1ccc(C)c(C)n1)CON=C(C)c1ccc(C)c(C)n1 (stereo not shown) [Compound 321]
3.4^[b] | CC(=NOC(C)CC(C)ON=C(C)c1ccc(C)c(C)n1)c1ccc(C)c(C)n1 (stereo not shown) [Compound 322]
5.59^[b] | CCC(=NOCCCCCCON=C(C)c1cccc(C)n1)c1cccc(C)n1 [Compound 346]
5.71^[b] | C=C(CON=C(C)c1cccc(C)n1)CON=C(C)c1cccc(Cc2ccccc2)n1 [Compound 350]
4.72^[b] (isomer B) | C=C(CON=C(C)c1cccc(C)n1)CON=C(c1cccc(C)n1)C(C)C [Compound 359]
7.07^[b] | CC(=NOCC(C)(C)CON=C(C)c1cccc(CC(C)C)n1)c1cccc(C)n1 [Compound 367]
5.78^[b] | CCc1cccc(C(C)=NOCC(C)(C)CON=C(C)c2cccc(C)n2)n1 [Compound 370]
4.51^[b] | CC(=NOCC(C)(C)CON=C(c1ccccc1)c1cccc(C)n1)c1cccc(C)n1 [Compound 371]
5.33^[b] | CCC(=NOCC(C)(C)CON=C(C)c1cccc(C)n1)c1cccc(C)n1 [Compound 372]

Same assay, conditions: value marked [c]

logP | Structure (SMILES)
6.08^[c] | CC(=NOCC1(CON=C(C)c2ccc(C)c(C)n2)CC1)c1ccc(C)c(C)n1 [Compound 315]
7.23^[c] | CCCC(CON=C(C)c1ccc(C)c(C)n1)CON=C(C)c1ccc(C)c(C)n1 (stereo not shown) [Compound 316]
7.36^[c] | CC(=NOCC(CON=C(C)c1ccc(C)c(C)n1)C(C)(C)C)c1ccc(C)c(C)n1 (stereo not shown) [Compound 317]
6.45^[c] | CC(=NOCC(CON=C(C)c1ccc(C)c(C)n1)c1ccccc1)c1ccc(C)c(C)n1 (stereo not shown) [Compound 318]
7.05^[c] | CC(=NOCC1(CON=C(C)c2ccc(C)c(C)n2)CCC1)c1ccc(C)c(C)n1 [Compound 319]
7.36^[c] | CC(=NOCC1(CON=C(C)c2ccc(C)c(C)n2)CCCCC1)c1ccc(C)c(C)n1 [Compound 320]
5.06^[c] | COC(CON=C(C)c1ccc(C)c(C)n1)CON=C(C)c1ccc(C)c(C)n1 (stereo not shown) [Compound 321]
6.79^[c] | CC(=NOC(C)CC(C)ON=C(C)c1ccc(C)c(C)n1)c1ccc(C)c(C)n1 (stereo not shown) [Compound 322]

— patent US20100022559A1, “BISOXIMES AS FUNGICIDES” (BAYER CROPSCIENCE AG, priority 2006, published 2010)
